From ChEMBL document CHEMBL3124908, “Design, synthesis, and evaluation of novel heteroaromatic analogs of curcumin as anti-cancer agents” (Eur J Med Chem, 2014)

How the values were obtained:
PC-3 = experiment: Cytotoxicity against human PC3 cells after 5 days by trypan blue exclusion assay; assay type: functional, cell-based; details: PC-3, 120 h
DU-145 = experiment: Cytotoxicity against human DU145 cells after 5 days by trypan blue exclusion assay; assay type: functional, cell-based; details: DU-145, 120 h
[1] = Cytotoxicity against human MCF10A cells up to 1 uM after 5 days by trypan blue exclusion assay; assay type: cell-based; details: mcf-10a, 120 h
A549 = experiment: Cytotoxicity against human A549 cells after 5 days by trypan blue exclusion assay; assay type: functional, cell-based; details: A549, 120 h
HeLa = experiment: Cytotoxicity against human HeLa cells after 5 days by trypan blue exclusion assay; assay type: functional, cell-based; details: 120 h
MDA-MB-231 = experiment: Cytotoxicity against human MDA-MB-231 cells after 5 days by trypan blue exclusion assay; assay type: functional, cell-based; details: MDA-MB-231, 120 h

| Structure (SMILES) | IC50 (PC-3) | IC50 (DU-145) | Activity [1] | IC50 (A549) | IC50 (HeLa) | IC50 (MDA-MB-231) |
| --- | --- | --- | --- | --- | --- | --- |
| Cn1nccc1/C=C/C(=O)/C=C/c1ccnn1C | 130 nM | 160 nM | – | – | – | – |
| Cn1ccnc1/C=C1\CCC/C(=C\c2nccn2C)C1=O | 94 nM | 630 nM | – | – | – | – |
| Cc1cc(/C=C/C(=O)/C=C/c2cc(C)no2)on1 | 41 nM | 16 nM | Non-toxic | 160 nM | 190 nM | 156 nM |
| O=C1/C(=C/c2cscn2)CCC/C1=C\c1cscn1 | 120 nM | 75 nM | – | – | – | – |
| Cc1nc(/C=C/C(=O)/C=C/c2coc(C)n2)co1 | 840 nM | 750 nM | – | – | – | – |
| CN1C/C(=C\c2nccs2)C(=O)/C(=C/c2nccs2)C1 | 420 nM | 46 nM | – | – | – | – |
| Cc1cc(/C=C2\CCC/C(=C\c3cc(C)on3)C2=O)no1 | 71 nM | 70 nM | – | – | – | – |
| CC(C)Cn1ccnc1/C=C/C(=O)/C=C/c1nccn1CC(C)C | 46 nM | 57 nM | Non-toxic | 110 nM | 390 nM | 150 nM |
| CC(C)Cn1ccnc1/C=C1\CCC/C(=C\c2nccn2CC(C)C)C1=O | 470 nM | 360 nM | – | – | – | – |
| CN1C/C(=C\c2nccn2C)C(=O)/C(=C/c2nccn2C)C1 | 93 nM | 130 nM | – | – | – | – |
| CC(C)n1ccnc1/C=C/C(=O)/C=C/c1nccn1C(C)C | 89 nM | 54 nM | – | – | – | – |
| O=C1/C(=C/c2nccs2)CCC/C1=C\c1nccs1 | 110 nM | 120 nM | – | – | – | – |
| CC(C)n1ccnc1/C=C1\CN(C)C/C(=C\c2nccn2C(C)C)C1=O | 110 nM | 140 nM | – | – | – | – |
| Cc1cc(/C=C2\CN(C)C/C(=C\c3cc(C)no3)C2=O)on1 | 130 nM | 690 nM | – | – | – | – |
| CCC(C)n1ccnc1/C=C1\CN(C)C/C(=C\c2nccn2C(C)CC)C1=O (centres undefined) | 6630 nM | 10 nM | – | – | – | – |
| CCC(C)n1ccnc1/C=C1\CCC/C(=C\c2nccn2C(C)CC)C1=O (centres undefined) | 830 nM | 250 nM | – | – | – | – |
| Cn1ccnc1/C=C/C(=O)/C=C/c1nccn1C | 110 nM | 57 nM | – | – | – | – |

| Structure (SMILES) | IC50 (PC-3) | IC50 (DU-145) | Activity [1] | IC50 (A549) | IC50 (HeLa) | IC50 (MDA-MB-231) |
| --- | --- | --- | --- | --- | --- | --- |
| O=C(/C=C/c1cscn1)/C=C/c1cscn1 | 94 nM | 96 nM | – | – | – | – |
| CC(C)n1ccnc1/C=C1\CCC/C(=C\c2nccn2C(C)C)C1=O | 160 nM | 100 nM | – | – | – | – |
| Cn1cc(/C=C2\CCC/C(=C\c3cnn(C)c3)C2=O)cn1 | 130000 nM | 90000 nM | – | – | – | – |
| COc1cc(/C=C/C(=O)CC(=O)/C=C/c2ccc(O)c(OC)c2)ccc1O [CURCUMIN] | 1980 nM | 300 nM | – | 15000 nM | 12600 nM | 880 nM |
| Cc1cc(/C=C/C(=O)/C=C/c2cc(C)on2)no1 | 250 nM | 42 nM | – | – | – | – |
| Cc1nc(/C=C2\CN(C)C/C(=C\c3coc(C)n3)C2=O)co1 | 310 nM | 76 nM | – | – | – | – |
| Cc1nc(/C=C2\CCC/C(=C\c3coc(C)n3)C2=O)co1 | 1970 nM | 1650 nM | – | – | – | – |
| O=C(/C=C/c1ccccn1)/C=C/c1ccccn1 | 33 nM | 20 nM | Non-toxic | 51 nM | 120 nM | 97 nM |
| CN1C/C(=C\c2cscn2)C(=O)/C(=C/c2cscn2)C1 | 800 nM | 430 nM | – | – | – | – |
| CN1C/C(=C\c2ccnn2C)C(=O)/C(=C/c2ccnn2C)C1 | 1020 nM | 1640 nM | – | – | – | – |
| Cc1cc(/C=C2\CN(C)C/C(=C\c3cc(C)on3)C2=O)no1 | 140 nM | 34 nM | – | – | – | – |
| CN1C/C(=C\c2cnn(C)c2)C(=O)/C(=C/c2cnn(C)c2)C1 | 76000 nM | – | – | – | – | – |
| Cc1cc(/C=C2\CCC/C(=C\c3cc(C)no3)C2=O)on1 | 54 nM | 340 nM | – | – | – | – |
| Cn1nccc1/C=C1\CCC/C(=C\c2ccnn2C)C1=O | 260 nM | 730 nM | – | – | – | – |
| CCC(C)n1ccnc1/C=C/C(=O)/C=C/c1nccn1C(C)CC (centres undefined) | 63 nM | 35 nM | Non-toxic | 100 nM | 62 nM | 130 nM |
| O=C(/C=C/c1nccs1)/C=C/c1nccs1 | 68 nM | 55 nM | – | – | – | – |
